Data taken from the NIST ThermoML archive (doi:10.1016/j.tca.2011.02.002).
Numbers after ± are expanded uncertainties.

Experiments:
[1] = xn = mol fraction of the nth substance listed; details: 101 kPa, Liquid; for mass density: Vibrating tube method
[2] = excess molar enthalpy (molar enthalpy of mixing); xn = mol fraction of the nth substance listed; details: 308.15 K, 101 kPa, Liquid, 2-drop calorimeter (CSC 4600_

Cc1ccncc1 [4-methylpyridine] + C1CCOCC1
[1]
Details | mass density, 298.15 K [kg/m3] | mass density, 303.15 K [kg/m3] | mass density, 308.15 K [kg/m3] | speed of sound, 298.15 K [m/s] | speed of sound, 303.15 K [m/s] | speed of sound, 308.15 K [m/s]
x2 = 0 | 950.179 ± 0.3 | 945.413 ± 0.3 | 940.821 ± 0.3 | 1431.5 ± 1 | 1410.7 ± 1 | 1389.9 ± 1
x2 = 0.0521 | 946.678 ± 0.32 | 941.884 ± 0.32 | 936.955 ± 0.32 | 1422.7 ± 1.1 | 1402.2 ± 1.1 | 1380.6 ± 1.1
x2 = 0.0832 | 944.577 ± 0.34 | 939.773 ± 0.34 | 935.004 ± 0.34 | 1417.5 ± 1.1 | 1397.2 ± 1.1 | 1376.2 ± 1.1
x2 = 0.1426 | 940.548 ± 0.37 | 935.733 ± 0.36 | 931.541 ± 0.36 | 1407.8 ± 1.1 | 1387.6 ± 1.1 | 1368.4 ± 1.1
x2 = 0.1882 | 937.434 ± 0.39 | 932.615 ± 0.39 | 928.307 ± 0.39 | 1400.5 ± 1.2 | 1380.3 ± 1.2 | 1360.8 ± 1.2
x2 = 0.2536 | 932.939 ± 0.42 | 928.121 ± 0.42 | 923.922 ± 0.42 | 1390.1 ± 1.3 | 1369.7 ± 1.3 | 1350.5 ± 1.3
x2 = 0.2902 | 930.406 ± 0.45 | 925.591 ± 0.44 | 921.331 ± 0.44 | 1384.3 ± 1.3 | 1363.8 ± 1.3 | 1344.4 ± 1.3
x2 = 0.3415 | 926.841 ± 0.47 | 922.019 ± 0.47 | 917.744 ± 0.47 | 1376.1 ± 1.4 | 1355.3 ± 1.4 | 1336 ± 1.4
x2 = 0.3782 | 924.275 ± 0.5 | 919.451 ± 0.49 | 914.432 ± 0.49 | 1370.3 ± 1.4 | 1349.3 ± 1.4 | 1328 ± 1.4
x2 = 0.4323 | 920.471 ± 0.53 | 915.637 ± 0.53 | 911.254 ± 0.52 | 1361.6 ± 1.4 | 1340.5 ± 1.4 | 1320.8 ± 1.4
x2 = 0.4913 | 916.295 ± 0.56 | 911.443 ± 0.56 | 907.207 ± 0.56 | 1352.1 ± 1.5 | 1330.7 ± 1.5 | 1311.3 ± 1.5
x2 = 0.5437 | 912.559 ± 0.6 | 907.692 ± 0.59 | 903.227 ± 0.59 | 1343.6 ± 1.6 | 1322 ± 1.6 | 1302.1 ± 1.6
x2 = 0.5991 | 908.587 ± 0.63 | 903.687 ± 0.63 | 899.247 ± 0.63 | 1334.5 ± 1.6 | 1312.8 ± 1.6 | 1292.8 ± 1.6
x2 = 0.6427 | 905.441 ± 0.66 | 900.515 ± 0.66 | 895.885 ± 0.65 | 1327.3 ± 1.6 | 1305.5 ± 1.6 | 1285.2 ± 1.6
x2 = 0.7015 | 901.173 ± 0.7 | 896.211 ± 0.69 | 891.453 ± 0.69 | 1317.7 ± 1.7 | 1295.7 ± 1.7 | 1275 ± 1.7
x2 = 0.7822 | 895.277 ± 0.75 | 890.253 ± 0.75 | 887.03 ± 0.74 | 1304.4 ± 1.8 | 1282.3 ± 1.8 | 1264.5 ± 1.8
x2 = 0.8263 | 892.032 ± 0.78 | 886.976 ± 0.78 | 882.795 ± 0.77 | 1297.2 ± 1.8 | 1275 ± 1.8 | 1255.2 ± 1.8
x2 = 0.8846 | 887.726 ± 0.82 | 882.631 ± 0.82 | 877.665 ± 0.81 | 1287.9 ± 1.9 | 1265.5 ± 1.9 | 1243.9 ± 1.9
x2 = 0.9435 | 883.352 ± 0.87 | 878.225 ± 0.86 | 873.901 ± 0.85 | 1278.6 ± 1.9 | 1255.9 ± 1.9 | 1235.3 ± 1.9

[2]
Details | excess molar enthalpy [kcal/mol]
x2 = 0.0442 | 0.00296 ± 0.000263
x2 = 0.1216 | 0.0102 ± 0.000335
x2 = 0.1982 | 0.0182 ± 0.00043
x2 = 0.2416 | 0.0233 ± 0.000478
x2 = 0.2882 | 0.0282 ± 0.000526
x2 = 0.3401 | 0.0323 ± 0.000574
x2 = 0.3876 | 0.0366 ± 0.000598
x2 = 0.4371 | 0.0395 ± 0.000645
x2 = 0.4834 | 0.0416 ± 0.000645
x2 = 0.5256 | 0.0419 ± 0.000669
x2 = 0.5934 | 0.0413 ± 0.000645
x2 = 0.6433 | 0.039 ± 0.000621
x2 = 0.6925 | 0.0359 ± 0.000598
x2 = 0.7367 | 0.0316 ± 0.00055
x2 = 0.7952 | 0.0256 ± 0.000502
x2 = 0.8262 | 0.0227 ± 0.000478
x2 = 0.8842 | 0.015 ± 0.000382
x2 = 0.9406 | 0.00777 ± 0.000311
